This assay relates to THP-1 monocytes. Nature of the assay: PATTERNS protein quantification in tagged THP-1 monocyte library. In kind it is cell-based, human. The following applies: 6 hours treatment; out of 400 proteins represented; including FOS and EGR1. The procedure:
RNP-mediated gene tagging in other cell lines. Non-confluent cells were trypsinized and/or washed and adjusted to a density 2E7/ml in warm OptiMEM. 125 μl of cell suspension were mixed with 125 μl OptiMEM containing 2.5 μg donor DNA, 2.5 μg Cas9 protein, and 250 ng sgRNA. The mix was incubated for 15 minutes at room temperature, and transferred to a 4 mm electroporation cuvette (BioRad). Cells were electroporated on a Gene Pulser Xcell Electroporation System (BioRad) using the following settings: 265V, 975 μF, and 720 Ohm. Cells were recovered immediately in 5 ml of pre-warmed growth medium. For library generation in THP-1 and SKMEL28 cells, the above protocol was scaled up 10-fold.
FACS sorting. […]
Analysis of Silent Barcode Sequencing data. Silent barcode bases were extracted from raw sequencing reads and were converted to a 28-bit integer value. Using a barcode lookup table, reads were collapsed into target loci, and a matrix of screening conditions vs. sorted bins was incremented for every successfully mapped read. Total read counts in every position of the matrix were normalized by the ratio of sorted cells (from control sort for simplification) divided by total reads with correctly mapped 10 bp reverse primer sequence, which helped to even out PCR saturation artifacts. […] All data were analyzed using a custom JavaScript-based analysis tool that is available online.

On to `CCCCCCCCCCCCCC(=O)O[C@@H]1[C@@H](C)[C@@]2(O)[C@@H](C=C(CO)C[C@]3(O)C(=O)C(C)=C[C@@H]23)[C@@H]2C(C)(C)[C@]12OC(C)=O` [PMA, Phorbol 12-Myristate 13-Acetate], for which the “proteins whose levels were altered, by PATTERNS” value is “four proteins”.

The record behind these values is patent US12281301B2, “Sequencing-based proteomics” (THE BROAD INSTITUTE, INC., priority 2018, dated 2025).
